In publication PMC8849385, “ATP-responsive biomolecular condensates tune bacterial kinase signaling” (Science Advances, 2022):

Key:
SpmX (ΔTM) = target: T1, SpmX (ΔTM) (Caulobacter vibrioides, UniProt A0A0H3C9Y4); assay: fluorescence microscopy of condensate dissolution; conditions: 5 μM protein, 5% Cy3 labelled; 5 mM MgCl2, 100 mM KCl, pH 7.4, 1 hour; solute effect on phase separation, no binding constant
T1 construct: cytoplasmic portion, AA 1 to 355 of 431, C-terminal TEV-His10 cleaved; E. coli BL21(DE3)

PopZ = target: T2, PopZ (Caulobacter vibrioides, UniProt A0A0H3C7Y4); assay: fluorescence microscopy of condensate dissolution; conditions: 5 μM protein, 1% Atto488 labelled; 5 mM MgCl2, 100 mM KCl, pH 7.4, 1 hour; solute effect on phase separation, no binding constant
T2 construct: full length, AA 1 to 177, C-terminal TEV-His6 cleaved; E. coli BL21(DE3)
T2 sequence (A0A0H3C7Y4 entry or part of it): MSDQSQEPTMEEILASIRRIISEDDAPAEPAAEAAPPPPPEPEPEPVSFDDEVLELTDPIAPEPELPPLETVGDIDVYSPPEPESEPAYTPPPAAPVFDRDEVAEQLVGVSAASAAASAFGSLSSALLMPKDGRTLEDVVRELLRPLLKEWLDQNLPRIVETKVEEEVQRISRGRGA

T1 sequence (A0A0H3C9Y4 entry or part of it, stated change not applied): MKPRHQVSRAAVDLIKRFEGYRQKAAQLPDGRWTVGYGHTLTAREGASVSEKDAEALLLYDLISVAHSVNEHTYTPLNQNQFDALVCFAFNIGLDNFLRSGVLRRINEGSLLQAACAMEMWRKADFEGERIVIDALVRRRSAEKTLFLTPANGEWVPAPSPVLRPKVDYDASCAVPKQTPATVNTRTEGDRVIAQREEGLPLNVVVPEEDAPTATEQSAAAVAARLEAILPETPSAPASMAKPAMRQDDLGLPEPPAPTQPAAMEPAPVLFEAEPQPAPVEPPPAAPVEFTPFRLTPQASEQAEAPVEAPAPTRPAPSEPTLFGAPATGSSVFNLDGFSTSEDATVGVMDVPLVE

dissolution concentration of condensates (SpmX (ΔTM)): 2 mM | dissolution concentration of condensates (PopZ): 1 mM
SMILES: Nc1ncnc2c1ncn2[C@@H]1O[C@H](COP(=O)(O)OP(=O)(O)OP(=O)(O)O)[C@@H](O)[C@H]1O [ATP]
